Where “and” joins values, the source holds several entries; their conditions need not be identical. Identical values can stand only once.
Columns and labels:
[1] = system: SARS-CoV-2 3CLpro L50F/E166V in HEK 293T cells; assay type: cell-based
SARS-CoV-2 3CLpro T25I = assay type: biochemical
SARS-CoV-2 3CLpro T25V = assay type: biochemical
SARS-CoV-2 3CLpro M49I = assay type: biochemical
[2] = system: SARS-CoV-2 3CLpro T25V in HEK 293T cells; assay type: cell-based
[3] = system: SARS-CoV-2 3CLpro M49I in HEK 293T cells; assay type: cell-based

| SMILES | Inhibition of 3CLpro in HEK 293T cells: Fold change in IC50 (relative to WT) [1] | Fold change in IC50 (relative to WT) (SARS-CoV-2 3CLpro T25I) | Fold change in IC50 (relative to WT) (SARS-CoV-2 3CLpro T25V) | Fold change in IC50 (relative to WT) (SARS-CoV-2 3CLpro M49I) | Inhibition of 3CLpro in HEK 293T cells: Fold change in IC50 (relative to WT) [2] | Inhibition of 3CLpro in HEK 293T cells: Fold change in IC50 (relative to WT) [3] |
| --- | --- | --- | --- | --- | --- | --- |
| CC(C)(C)[C@H](NC(=O)C(F)(F)F)C(=O)N1C[C@H]2[C@@H]([C@H]1C(=O)N[C@H](C#N)C[C@@H]1CCNC1=O)C2(C)C [nirmatrelvir] | 18.4 | – | – | – | – | – |
| Cn1cnc(Cn2c(=O)[nH]/c(=N\c3cc4cn(C)nc4cc3Cl)n(Cc3cc(F)c(F)cc3F)c2=O)n1 [ensitrelvir] | – | 3.2 | 5.7 | 4.5 | 3.3 | 21.8 and ~20 |

— publication PMC11003996 (Cell Discovery, 2024)
